The structures appear in SMILES notation.

The nature of this data set: Main transition temperature (TM) of phosphatidylcholines. The following applies: acyl chains at positions 1 and 2 of glycero-3-phosphocholine or 1 and 3 of glycero-2-phosphocholine. Type of data set: physicochemical. The procedure:
The abovementioned preferred composition of the liposome according to the invention can be made to measure for other temperature ranges by choice of components having the main transition temperature suitable in each case. In table 1, the main transition temperatures (TM) of phosphatidylcholines are indicated whose main transition temperature lies in the range from 0 to 80° C. The main transition temperatures are recognizable as from the table, depending on the chain length and the distribution over the positions 1 and 2 of glycero-3-phosphocholine or 1 and 3 of glycero-2-phosphocholine.
Regarding `CCCCCCCCCCCCCC(=O)OC[C@H](COP(=O)([O-])OCC[N+](C)(C)C)OC(=O)CCCCCCCCCCCCC` [1,2-dimyristoyl-], the “TM (main transition temperature)” value was 23 °C.

With `CCCCCCCCCCCCCC(=O)OCC(COC(=O)CCCCCCCCCCCCC)OP(=O)([O-])OCC[N+](C)(C)C` [1,3-dimyristoyl-], the “TM (main transition temperature)” value came out at 19 °C.

On to `CCCCCCCCCCCCCCCC(=O)OC(COC(=O)CCCCCCCCCCCCC)COP(=O)([O-])OCC[N+](C)(C)C` (stereo not drawn) [1-myristoyl-2-palmitoyl], for which the “TM (main transition temperature)” value turned out to be 37 °C.

With `CCCCCCCCCCCCCCCCCC(=O)O[C@H](COC(=O)CCCCCCCCCCCCC)COP(=O)([O-])OCC[N+](C)(C)C` [1-myristoyl-2-stearoyl-], the “TM (main transition temperature)” value came out at 42 °C.

As for `CCCCCCCCCCCCCCCC(=O)OCC(COP(=O)([O-])OCC[N+](C)(C)C)OC(=O)CCCCCCCCCCCCCCC` (stereo not drawn) [1,2-dipalmitoyl-, 1,2-di-palmitoylglycero-3-phosphocholine], the “TM (main transition temperature)” value came to 41 °C.

Consider `CCCCCCCCCCCCCCCCCC(=O)OC[C@H](COP(=O)([O-])OCC[N+](C)(C)C)OC(=O)CCCCCCCCCCCCCCC` [1-stearoyl-2-palmitoyl-], for which the “TM (main transition temperature)” value was found to be 48 °C.

For `CCCCCCCCCCCCCCCC(=O)OC[C@H](COP(=O)([O-])OCC[N+](C)(C)C)OC(=O)CCCCCCCCCCC` [1-palmitoyl-2-lauroyl-], the “TM (main transition temperature)” value was 11 °C.

Consider `CCCCCCCCCCCCCCCCCC(=O)OCC(COC(=O)CCCCCCCCCCCCCCCCC)OP(=O)([O-])OCC[N+](C)(C)C` [1,3-distearoyl-], for which the “TM (main transition temperature)” value turned out to be 53 °C.

For `CCCCCCCCCCCCCCCCCC(=O)OCC(COC(=O)CCCCCCCCCCCCC)OP(=O)([O-])OCC[N+](C)(C)C` (stereo not drawn) [1-stearoyl-3-myristoyl-], the “TM (main transition temperature)” value was 46 °C.

As to `CCCCCCCCCCCCCCCCCCCCCCCC(=O)OC[C@H](COP(=O)([O-])OCC[N+](C)(C)C)OC(=O)CCCCCCCCCCCCCCCCCCCCCCC` [1,2-dilignoceroyl-], the “TM (main transition temperature)” value worked out at 80 °C.

In the case of `CCCCCCCCCCCCCCCCCCCC(=O)OC[C@H](COP(=O)([O-])OCC[N+](C)(C)C)OC(=O)CCCCCCCCCCCCCCCCCCC` [1,2-diarachinoyl-], the “TM (main transition temperature)” value is 66 °C.

On to `CCCCCCCCCCCCCCCCCC(=O)O[C@H](COC(=O)CCCCCCCCCCCCCCC)COP(=O)([O-])OCC[N+](C)(C)C` [1-palmitoyl-2-stearoyl-], for which the “TM (main transition temperature)” value turned out to be 52 °C.

As to `CCCCCCCCCCCCCCCCCCCCCC(=O)OC[C@H](COP(=O)([O-])OCC[N+](C)(C)C)OC(=O)CCCCCCCCCCCCCCCCCCCCC` [1,2-dibehenoyl-], the “TM (main transition temperature)” value was 75 °C.

For `CCCCCCCCCCCCCCCC(=O)OCC(COC(=O)CCCCCCCCCCCCCCC)OP(=O)([O-])OCC[N+](C)(C)C` [1,3-dipalmitoyl-], the “TM (main transition temperature)” value came out at 39 °C.

Take `CCCCCCCCCCCCCCCCCC(=O)OCC(COP(=O)([O-])OCC[N+](C)(C)C)OC(=O)CCCCCCCCCCCCCCCCC` (stereo not drawn) [1,2-distearoyl-, 1,2-distearoylglycero-3-phospho-choline]: the “TM (main transition temperature)” value worked out at 56 °C.

In the case of `CCCCCCCC/C=C\CCCCCCCC(=O)O[C@H](COC(=O)CCCCCCCCCCCCCCCCCCCCC)COP(=O)([O-])OCC[N+](C)(C)C` [1-behenoyl-2-oleoyl-], the “TM (main transition temperature)” value is 14 °C.

For the molecule `CCCCCCCCCCCCCCCCCC(=O)OC[C@H](COP(=O)([O-])OCC[N+](C)(C)C)OC(=O)CCCCCCCCCCC` [1-stearoyl-2-lauroyl-], the “TM (main transition temperature)” value was found to be 17 °C.

As for `CCCCCCCC/C=C\CCCCCCCC(=O)O[C@H](COC(=O)CCCCCCCCCCCCCCCCC)COP(=O)([O-])OCC[N+](C)(C)C` [1-stearoyl-2-oleoyl-], the “TM (main transition temperature)” value turned out to be 7 °C.

Turning to `CCCCCCCC/C=C\CCCCCCCC(=O)O[C@H](COC(=O)CCCCCCCCCCCCCCC)COP(=O)([O-])OCC[N+](C)(C)C` [1-palmitoyl-2-oleoyl-], the “TM (main transition temperature)” value turned out to be 5 °C.

Consider `CCCCCCCCCCCCCCCC(=O)OC[C@H](COP(=O)([O-])OCC[N+](C)(C)C)OC(=O)CCCCCCCCCCCCC` [1-palmitoyl-2-myristoyl-], for which the “TM (main transition temperature)” value worked out at 27 °C.

For the molecule `CCCCCCCCCCCCCCCCCC(=O)OC[C@H](COP(=O)([O-])OCC[N+](C)(C)C)OC(=O)CCCCCCCCCCCCC` [1-stearoyl-2-myristoyl-], the “TM (main transition temperature)” value is 33 °C.

The values above are taken from US20100260683A1, “THERMOLABILE LIPOSOME WITH CONTROLLED RELEASE TEMPERATURE” (MAX-PLANCK-GESELLSCHAFT ZUR FORDERUNG DER WISSENCHAFTEN E.V., priority 2001, published 2010).
